Laboratory results: ChEMBL document CHEMBL1135107, “Synthesis and evaluation of new antimalarial analogues of quinoline alkaloids derived from Cinchona ledgeriana Moens ex Trimen” (Bioorg Med Chem Lett, 2002)

Key:
Plasmodium falciparum [1] = test: In vitro antimalarial activity against Plasmodium falciparum W2 in human erythrocytes by [3H]hypoxanthine uptake; type: functional, organism-based
Plasmodium falciparum [2] = test: In vitro inhibition of parasite development of Plasmodium falciparum W2 in human erythrocytes; type: functional, organism-based

| IC50 (Plasmodium falciparum [1]; Plasmodium falciparum) | IC50 (Plasmodium falciparum [2]; Plasmodium falciparum) | Compound | IC50 (Plasmodium falciparum [1]) | IC50 (Plasmodium falciparum [2]) |
| --- | --- | --- | --- | --- |
| 1200 nM | 230 nM | C=CCO[C@@H](c1ccnc2ccc(OC)cc12)[C@H]1C[C@@H]2CC[N@@+]1(Cc1cc(C(C)(C)C)c(OC)c(C(C)(C)C)c1)C[C@@H]2C=C | – | – |
| 1000 nM | 510 nM | C=C[C@H]1C[N@+]2(Cc3cc(C(C)(C)C)c(OC)c(C(C)(C)C)c3)CC[C@H]1C[C@@H]2[C@@H](O)c1ccnc2ccc(OC)cc12 | – | – |
| – | – | C=C[C@H]1C[N@+]2(Cc3cc(C(C)(C)C)c(OC)c(C(C)(C)C)c3)CC[C@H]1C[C@@H]2[C@@H](O)c1ccnc2ccccc12 (stereo in doubt; form 2) | 360 nM | 160 nM |
| 620 nM | 150 nM | C=C[C@H]1C[N@+]2(Cc3cc(C(C)(C)C)c(OC)c(C(C)(C)C)c3)CC[C@H]1C[C@H]2[C@H](OCc1ccccc1)c1ccnc2ccc(OC)cc12 | – | – |
| 410 nM | 100 nM | C=C[C@H]1C[N@+]2(Cc3cc(C(C)(C)C)c(OC)c(C(C)(C)C)c3)CC[C@H]1C[C@@H]2[C@@H](OCc1ccccc1)c1ccnc2ccc(OC)cc12 | – | – |
| 1100 nM | 120 nM | C=C[C@H]1C[N@+]2(Cc3cc(C(C)(C)C)c(OC)c(C(C)(C)C)c3)CC[C@H]1C[C@@H]2[C@@H](OCc1ccccc1)c1ccnc2ccccc12 | – | – |
| – | – | C=C[C@H]1C[N@+]2(Cc3cc(C(C)(C)C)c(OC)c(C(C)(C)C)c3)CC[C@H]1C[C@@H]2[C@@H](O)c1ccnc2ccccc12 (stereo in doubt; form 1) | 800 nM | 530 nM |
| 1000 nM | 410 nM | C=CCO[C@H](c1ccnc2ccc(OC)cc12)[C@@H]1C[C@@H]2CC[N@@+]1(Cc1cc(C(C)(C)C)c(OC)c(C(C)(C)C)c1)C[C@@H]2C=C | – | – |
| 520 nM | 63 nM | C=C[C@H]1C[N@+]2(Cc3cc(C(C)(C)C)c(OC)c(C(C)(C)C)c3)CC[C@H]1C[C@H]2[C@H](OCc1ccccc1)c1ccnc2ccccc12 | – | – |
| 380 nM | 99 nM | C=C[C@H]1C[N@+]2(Cc3cc(C(C)(C)C)c(OC)c(C(C)(C)C)c3)CC[C@H]1C[C@H]2[C@H](O)c1ccnc2ccc(OC)cc12 | – | – |
| 1100 nM | 580 nM | C=CCO[C@H](c1ccnc2ccccc12)[C@@H]1C[C@@H]2CC[N@@+]1(Cc1cc(C(C)(C)C)c(OC)c(C(C)(C)C)c1)C[C@@H]2C=C | – | – |

| Compound | IC50 (Plasmodium falciparum [1]; Plasmodium falciparum) | IC50 (Plasmodium falciparum [2]; Plasmodium falciparum) | IC50 (Plasmodium falciparum [1]) | IC50 (Plasmodium falciparum [2]) |
| --- | --- | --- | --- | --- |
| C=C[C@H]1CN2CC[C@H]1C[C@H]2[C@H](O)c1ccnc2ccccc12 [CINCHONIDINE] | 380 nM | 290 nM | – | – |
| C=C[C@H]1CN2CC[C@H]1C[C@@H]2[C@@H](O)c1ccnc2ccccc12 [CINCHONINE] | 220 nM | 51 nM | – | – |
| C=C[C@H]1CN2CC[C@H]1C[C@H]2[C@H](O)c1ccnc2ccc(OC)cc12 [QUININE] | 370 nM | 120 nM | – | – |
| C=C[C@H]1CN2CC[C@H]1C[C@@H]2[C@@H](O)c1ccnc2ccc(OC)cc12 [QUINIDINE] | 160 nM | 4 nM | – | – |
| C=C[C@H]1C[N@+]2(Cc3cc(C(C)(C)C)c(OC)c(C(C)(C)C)c3)CC[C@H]1C[C@H]2[C@H](O)c1ccnc2ccccc12 | 510 nM | 160 nM | – | – |
